These results are taken from US20260265798A1, “Enzymes and Uses in Biocatalytic Halogenation of N-Heteroaryls Thereof” (Agency for Science, Technology and Research, priority 2022, published 2026).

One assay addresses T1, NT-11 PrnC (Pseudomonas fluorescens, UniProt P95482).
T1 construct: made in house; host or cells: T7 Express E. coli (NEB), pET-28a(+)
T1 sequence (P95482 with tags, fused parts or gaps): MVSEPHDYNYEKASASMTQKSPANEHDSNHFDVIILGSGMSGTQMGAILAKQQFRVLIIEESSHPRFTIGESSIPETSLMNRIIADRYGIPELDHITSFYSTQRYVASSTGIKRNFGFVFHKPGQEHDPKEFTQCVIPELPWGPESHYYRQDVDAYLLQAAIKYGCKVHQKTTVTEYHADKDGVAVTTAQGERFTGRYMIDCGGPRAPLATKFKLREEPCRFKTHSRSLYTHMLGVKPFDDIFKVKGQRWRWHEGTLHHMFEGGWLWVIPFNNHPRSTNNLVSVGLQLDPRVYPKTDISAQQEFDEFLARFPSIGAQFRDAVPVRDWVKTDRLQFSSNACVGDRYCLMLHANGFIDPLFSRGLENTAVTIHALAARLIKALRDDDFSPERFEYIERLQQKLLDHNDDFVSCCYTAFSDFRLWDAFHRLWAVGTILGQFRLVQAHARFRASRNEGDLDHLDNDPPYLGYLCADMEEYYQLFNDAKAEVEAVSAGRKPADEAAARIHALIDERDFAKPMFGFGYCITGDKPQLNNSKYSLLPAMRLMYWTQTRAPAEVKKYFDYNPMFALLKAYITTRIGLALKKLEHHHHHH
Briefly: NT-11 PrnC-catalyzed halogenation, analytical scale biotransformation (in-vitro regioselective chlorination, substrate scope). To be noted: in-vitro chlorination by PrnC under optimized conditions; substrate 0.5 mM, MgCl2 10 mM, overnight 30° C.; HPLC. The class given is biochemical. The method, then: NT-11 PrnC-Catalyzed halogenation. In a solution containing the pyrrolic derivative starting material (0.5 mM), MgCl2/MgBr2 (10 mM), glucose (5.0 mM), FAD ([…]), NT-11 PrnC (12.5 μM), Fre ([…]) and Gdhi (2.5 μM) in 10 mM potassium phosphate buffer, NADH (2.5 mM) was added to a total volume of 200 μL. After an overnight incubation of 30° C. and orbital shaking at 350 rpm, reactions were quenched with an equivalent volume of MeOH, pelleted by centrifugation (15000 rpm for 10 min) and the supernatant analyzed by HPLC-MS using the analytical HPLC method.
Analytical HPLC Method. 10 μL of the supernatant injected onto SecurityGuard™ column (KJ0-4282) with a (4.0 mm×3.0 mm) guard cartridge before separation using a Phenomenex Gemini® C18 analytical column (5 μm packing, 150 mm×4.6 mm). Gradient starting conditions of 5% MeCN/H2O (+0.1% Formic acid) were held for 1 min before development into 50% MeCN/H2O over 3 min, followed by development into 95% MeCN/H2O over 3 min. 95% MeCN/H2O was held for 1 min before equilibration back to starting conditions over 1 min. Starting conditions was held for 1 min followed by another 2 min post-run. Flow rates were kept constant at 1 mL/min. Column temperature was kept constant at 30° C. UV absorbance was detected at 220 nm, 254 nm and 210 nm throughout the run.
A substrate scope of the enzyme by the application of the Prnc enzyme on a list of structural diverse pyrrolic substrates is determined. An optimized co-factors regeneration protocol was used to regulate the generation of the activated halogen which is captured by the Prnc enzyme into the active site for the bioconversion. Reaction is conducted at ambient temperature of 30° C., in an aqueous non-toxic buffer solution with an environmentally friendly chloride source.

For the next assay, the target named is T2, PrnC (Pseudomonas fluorescens, UniProt P95482).
T2 construct: made in house; host or cells: T7 Express E. coli (NEB), pET-28a(+)
T2 sequence (P95482 with tags, fused parts or gaps): T1 sequence (P95482 with tags, fused parts or gaps)
The assay is described as follows: Optimization study of PrnC biocatalyst enzymatic assay conditions on the native substrate 1. The assay is classed as biochemical. Here is the method: The conditions in the table above would be referred to as the standard conditions of the present invention; i.e. flavin-dependent halogenase (4 mol %), flavin adenine dinucleotide (FAD) (0.2 mol %), E. coli flavin reductase (Fre) (0.5 mol %), nicotinamide adenine dinucleotide hydrogen (NADH) (5.0 equiv), glucose 1-dehydrogenase (GdHi) (0.5 mol %), monosaccharide (10.0 equiv), halogen (20.0 equiv), buffer (10 mM, pH 7.4).
With the purified biocatalyst PrnC enzyme in hand, a preliminary optimization study of the enzymatic assay conditions was performed on the native substrate monodechloroaminopyrrolnitrin (1). The enzyme assays were carried out for 18 h with orbital shaking at 300 rpm and a temperature of 30° C. In addition to the substrate and PrnC, the reaction mixture contained FAD (0.1 equivalents relative to PrnC), NADH and E. coli flavin reductase (Fre), needed to generate FADH2 for the halogenation reaction. In initial assays, even using a super stoichiometric amount of NADH (5.0 equiv) (entry 1) only yielded 18% conversion to the desired product.

Marks after values point to notes of the source that are not given here.

Compound `Nc1c(Cl)cccc1-c1[nH]ncc1Cl` [compound 12, 2-chloro-6-(4-chloro-1H-pyrazol-5-yl)aniline] returned a conversion yield at NT-11 PrnC of 14%. Still for that read-out and setting: with `Clc1c[nH]cc1-c1cccnc1` [compound 9, 3-(4-chloro-1H-pyrrol-3-yl)pyridine] the figure was 73%. On to `Nc1c(Cl)cccc1-c1c[nH]cc1Cl` [compound 2, 2-chloro-6-(4-chloro-1H-pyrrol-3-yl)aniline], for which the conversion yield at NT-11 PrnC worked out at 55%. Besides, the “conversion of 2 (%)” value at PrnC (entry 1: 2 mol% FAD (10x), no GdHi & glucose, 18 h, 30° C.) amounted to 18%; at PrnC (entry 2: 2 mol% FAD (10x), GdHi regen), 16%; on PrnC (entry 4: 1 mol% of Fre (2x)), 72%; at PrnC (entry 5: 0.05 Equiv NADH (Less 100x)), 32%; at PrnC (entry 6: 0.05 Equiv NADH (Less 100x) + 8 mol% PrnC (2x)), 53%; on PrnC (entry 7: 0.05 Equiv NADH (Less 100x) in Tris HCl buffer), 49%. On PrnC (standard conditions: PrnC 4 mol%, GdHi 0.5 mol%, FAD 0.2 mol%, Fre 0.5 mol%, NADH 5.0 equiv, glucose 10.0 equiv, MgCl2 20.0 equiv, phosphate buffer 10 mM pH 7.4), the “conversion of 2 (%)” value is listed as 91^b %. For `CC(=O)Nc1ccccc1-c1c[nH]cc1Cl` [compound 3, N-(2-(4-chloro-1H-pyrrol-3-yl)phenyl)acetamide], on NT-11 PrnC, the conversion yield came out at 18%. Still for that read-out and setting: with `Nc1ccccc1-c1cc(Cl)c[nH]1` [compound 11, 2-(4-chloro-1H-pyrrol-2-yl)aniline] the figure was 68%; with `Clc1c[nH]cc1-c1cnc2ccccc2c1` [compound 14, 3-(4-chloro-1H-pyrrol-3-yl) quinoline], 63%. On the same count and under the same terms, then `Cc1ccccc1-c1c[nH]cc1Cl` [compound 5, 3-chloro-4-(o-tolyl)-1H-pyrrole], with 22%.

Compound `COc1ccccc1-c1c[nH]cc1Cl` [compound 6, 3-chloro-4-(2-methoxyphenyl)-1H-pyrrole] came in with a conversion yield on NT-11 PrnC of 41%. Same read-out and setting: with `Clc1c[nH]cc1-c1ccccc1` [compound 8, 3-chloro-4-phenyl-1H-pyrrole] the figure was 77%.

On NT-11 PrnC, `Oc1ccccc1-c1c[nH]cc1Cl` [compound 7, 2-(4-chloro-1H-pyrrol-3-yl)phenol] returned a conversion yield of 21%.
